# Values joined by “and” are separate entries in the source; they are usually repeats but may differ in a detail not shown here. Equal values may be shown once. Results filed as inconclusive are left out.
# System: BDF1 mice, s.c. Lewis lung carcinoma, T/C %
# Assay: NCI In Vivo Anticancer Drug Screen. Data for tumor model Lewis Lung Carcinoma (subcutaneous) in B6D2F1 (BDF1) mice
# Method in brief: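 Antitumor effect in vivo is scored from survival or tumor burden, reported as treated relative to vehicle controls.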
# [1] = endpoint: median survival time, dose: 25.0 mg/kg/injection, schedule: Q01DX009 (ip), vehicle: Klucel (hydroxypropylcellulose) (HPC), higher = longer survival
smiles,measurement,setting,value
CC(=N\O)/C(C)=N/O.CC(=N\O)/C(C)=N/O.[Pd],T/C,"endpoint: median survival time, dose: 0.75 mg/kg/injection, schedule: Q01DX009 (ip), vehicle: Klucel (hydroxypropylcellulose) (HPC), higher = longer survival",109 % of control
same,T/C,"endpoint: median survival time, dose: 1.57 mg/kg/injection, schedule: Q01DX009 (ip), vehicle: Klucel (hydroxypropylcellulose) (HPC), higher = longer survival",97 % of control
C[C@]12CC[C@H](O)CC1=CC[C@@H]1[C@@H]2CC[C@]2(C)c3nc4ccccc4cc3C[C@@H]12,T/C,"endpoint: mean tumor weight, dose: 0.2 mg/kg/injection, schedule: Q01DX011 (sc), vehicle: steriod suspending solution, higher = larger tumour",104 % of control
same,T/C,"endpoint: mean tumor weight, dose: 0.4 mg/kg/injection, schedule: Q01DX011 (sc), vehicle: steriod suspending solution, higher = larger tumour",87 % of control
same,T/C,"endpoint: mean tumor weight, dose: 0.8 mg/kg/injection, schedule: Q01DX011 (sc), vehicle: steriod suspending solution, higher = larger tumour",95 % of control
same,T/C,"endpoint: mean tumor weight, dose: 1.6 mg/kg/injection, schedule: Q01DX011 (sc), vehicle: steriod suspending solution, higher = larger tumour",117 % of control
same,T/C,"endpoint: mean tumor weight, dose: 3.25 mg/kg/injection, schedule: Q01DX011 (sc), vehicle: steriod suspending solution, higher = larger tumour",93 % of control
same,T/C,"endpoint: mean tumor weight, dose: 7.5 mg/kg/injection, schedule: Q01DX011 (sc), vehicle: steriod suspending solution, higher = larger tumour",63 % of control
same,T/C,"endpoint: mean tumor weight, dose: 15.6 mg/kg/injection, schedule: Q01DX011 (sc), vehicle: steriod suspending solution, higher = larger tumour",70 % of control
same,T/C,"endpoint: mean tumor weight, dose: 31.3 mg/kg/injection, schedule: Q01DX011 (sc), vehicle: steriod suspending solution, higher = larger tumour",43 % of control
same,T/C,"endpoint: mean tumor weight, dose: 60.0 mg/kg/injection, schedule: Q01DX011 (sc), vehicle: steriod suspending solution, higher = larger tumour",95 % of control
same,T/C,"endpoint: mean tumor weight, dose: 62.5 mg/kg/injection, schedule: Q01DX011 (sc), vehicle: steriod suspending solution, higher = larger tumour",91 % of control
same,T/C,"endpoint: mean tumor weight, dose: 90.0 mg/kg/injection, schedule: Q01DX011 (sc), vehicle: steriod suspending solution, higher = larger tumour",83 % of control
same,T/C,"endpoint: mean tumor weight, dose: 125.0 mg/kg/injection, schedule: Q01DX011 (sc), vehicle: steriod suspending solution, higher = larger tumour",52 % of control
same,T/C,"endpoint: mean tumor weight, dose: 500.0 mg/kg/injection, schedule: Q01DX011 (sc), vehicle: steriod suspending solution, higher = larger tumour",77 % of control
O=C1N(Br)C(=O)C(c2ccc(Cl)cc2)(c2ccc(Cl)cc2)N1Br,T/C,"endpoint: median survival time, dose: 3.12 mg/kg/injection, schedule: Q01DX009 (ip), vehicle: Klucel (hydroxypropylcellulose) (HPC), higher = longer survival",100 % of control
same,T/C,"endpoint: median survival time, dose: 6.25 mg/kg/injection, schedule: Q01DX009 (ip), vehicle: Klucel (hydroxypropylcellulose) (HPC), higher = longer survival",97 % of control
same,T/C,"endpoint: median survival time, dose: 12.5 mg/kg/injection, schedule: Q01DX009 (ip), vehicle: Klucel (hydroxypropylcellulose) (HPC), higher = longer survival",102 % of control
same,T/C,[1],96 % of control
COc1ccc(CC2C(=O)NC(C)C(=O)N(C)C3Cc4ccc(cc4)Oc4cc(ccc4O)CC(C(=O)NC(C)C(=O)NC(C)C(=O)N2C)N(C)C3=O)cc1 (stereo not drawn),T/C,"endpoint: median survival time, dose: 1.0 mg/kg/injection, schedule: Q01DX009 (ip), vehicle: saline, higher = longer survival",103 % of control
same,T/C,"endpoint: median survival time, dose: 2.0 mg/kg/injection, schedule: Q01DX009 (ip), vehicle: saline, higher = longer survival",111 % of control
C[C@@H]1C[C@@H]([C@H](O)CC2CC(=O)NC(=O)C2)C(=O)[C@@H](C)C1,T/C,"endpoint: mean tumor weight, dose: 15.0 mg/kg/injection, schedule: Q01DX011 (ip), vehicle: carboxymethylcellulose (CMC), higher = larger tumour",62 % of control and 81 % of control
same,T/C,"endpoint: mean tumor weight, dose: 30.0 mg/kg/injection, schedule: Q01DX011 (ip), vehicle: carboxymethylcellulose (CMC), higher = larger tumour",50 % of control and 57 % of control
COc1cc(O)c2c(c1)C(=O)c1cc3c(c(O)c1C2=O)C(O)C(OC)C(C)(O)C3=O (stereo not drawn),T/C,"endpoint: median survival time, dose: 12.5 mg/kg/injection, schedule: Q01DX009 (ip), vehicle: water, higher = longer survival",109 % of control
same,T/C,[1],95 % of control
same,T/C,"endpoint: median survival time, dose: 25.0 mg/kg/injection, schedule: Q01DX009 (ip), vehicle: water, higher = longer survival",89 % of control
same,T/C,"endpoint: median survival time, dose: 50.0 mg/kg/injection, schedule: Q01DX009 (ip), vehicle: Klucel (hydroxypropylcellulose) (HPC), higher = longer survival",103 % of control
same,T/C,"endpoint: median survival time, dose: 50.0 mg/kg/injection, schedule: Q01DX009 (ip), vehicle: water, higher = longer survival",124 % of control
same,T/C,"endpoint: median survival time, dose: 100.0 mg/kg/injection, schedule: Q01DX009 (ip), vehicle: Klucel (hydroxypropylcellulose) (HPC), higher = longer survival",100 % of control
same,T/C,"endpoint: median survival time, dose: 100.0 mg/kg/injection, schedule: Q01DX009 (ip), vehicle: water, higher = longer survival",103 % of control
same,T/C,"endpoint: median survival time, dose: 200.0 mg/kg/injection, schedule: Q01DX009 (ip), vehicle: water, higher = longer survival",90 % of control
Cc1cc(CCl)c(C)c(Br)c1C,T/C,"endpoint: median survival time, dose: 1.5 mg/kg/injection, schedule: Q01DX009 (ip), vehicle: Klucel (hydroxypropylcellulose) (HPC), higher = longer survival",108 % of control
same,T/C,"endpoint: median survival time, dose: 3.0 mg/kg/injection, schedule: Q01DX009 (ip), vehicle: Klucel (hydroxypropylcellulose) (HPC), higher = longer survival",120 % of control
same,T/C,"endpoint: median survival time, dose: 6.0 mg/kg/injection, schedule: Q01DX009 (ip), vehicle: Klucel (hydroxypropylcellulose) (HPC), higher = longer survival",95 % of control
Cc1cc(N(CC(C)Br)CC(C)Br)ccc1N=Nc1ccccc1C(=O)O (stereo not drawn),T/C,"endpoint: median survival time, dose: 3.12 mg/kg/injection, schedule: Q01DX009 (ip), vehicle: saline with Tween-80, higher = longer survival",108 % of control
same,T/C,"endpoint: median survival time, dose: 6.25 mg/kg/injection, schedule: Q01DX009 (ip), vehicle: saline with Tween-80, higher = longer survival",95 % of control and 102 % of control
C1CCNCC1,T/C,"endpoint: mean tumor weight, dose: 6.25 mg/kg/injection, schedule: Q01DX011 (ip), vehicle: saline, higher = larger tumour",87 % of control
same,T/C,"endpoint: mean tumor weight, dose: 12.5 mg/kg/injection, schedule: Q01DX011 (ip), vehicle: saline, higher = larger tumour",87 % of control
same,T/C,"endpoint: mean tumor weight, dose: 25.0 mg/kg/injection, schedule: Q01DX011 (ip), vehicle: saline, higher = larger tumour",94 % of control
same,T/C,"endpoint: mean tumor weight, dose: 50.0 mg/kg/injection, schedule: Q01DX011 (ip), vehicle: saline, higher = larger tumour",73 % of control and 95 % of control
same,T/C,"endpoint: mean tumor weight, dose: 100.0 mg/kg/injection, schedule: Q01DX011 (ip), vehicle: saline, higher = larger tumour",83 % of control
CC1([CH2][Hg][I])COCC([CH2][Hg][I])O1 (stereo not drawn),T/C,"endpoint: mean tumor weight, dose: 5.0 mg/kg/injection, schedule: Q01DX011 (ip), vehicle: saline, higher = larger tumour",63 % of control
same,T/C,"endpoint: mean tumor weight, dose: 10.0 mg/kg/injection, schedule: Q01DX011 (ip), vehicle: saline, higher = larger tumour",42 % of control
same,T/C,"endpoint: mean tumor weight, dose: 20.0 mg/kg/injection, schedule: Q01DX011 (ip), vehicle: saline, higher = larger tumour",52 % of control
same,T/C,"endpoint: mean tumor weight, dose: 40.0 mg/kg/injection, schedule: Q01DX011 (ip), vehicle: saline, higher = larger tumour",39 % of control
Nc1ncn(C2OC(CO)C(O)C2O)c(=O)n1 (stereo not drawn),T/C,"endpoint: median survival time, dose: 0.75 mg/kg/injection, schedule: Q01DX009 (ip), vehicle: saline, higher = longer survival",105 % of control and 112 % of control and 121 % of control
same,T/C,"endpoint: median survival time, dose: 1.5 mg/kg/injection, schedule: Q01DX009 (ip), vehicle: saline, higher = longer survival",121 % of control and 124 % of control
same,T/C,"endpoint: median survival time, dose: 3.0 mg/kg/injection, schedule: Q01DX009 (ip), vehicle: saline, higher = longer survival",105 % of control and 110 % of control
same,T/C,"endpoint: median tumor weight (est.), dose: 0.75 mg/kg/injection, schedule: Q01DX009 (ip), vehicle: saline, higher = larger tumour",75 % of control
same,T/C,"endpoint: median tumor weight (est.), dose: 1.5 mg/kg/injection, schedule: Q01DX009 (ip), vehicle: saline, higher = larger tumour",73 % of control
same,T/C,"endpoint: median tumor weight (est.), dose: 3.0 mg/kg/injection, schedule: Q01DX009 (ip), vehicle: saline, higher = larger tumour",59 % of control
ClCC[N-]CC[N-]CCCl.ClCC[N-]CC[N-]CCCl.[O-][Cl+3]([O-])([O-])O.[Zn+2],T/C,"endpoint: median survival time, dose: 5.0 mg/kg/injection, schedule: Q01DX009 (ip), vehicle: saline with Tween-80, higher = longer survival",101 % of control
same,T/C,"endpoint: median survival time, dose: 10.0 mg/kg/injection, schedule: Q01DX009 (ip), vehicle: saline with Tween-80, higher = longer survival",101 % of control
same,T/C,"endpoint: median survival time, dose: 20.0 mg/kg/injection, schedule: Q01DX009 (ip), vehicle: saline with Tween-80, higher = longer survival",105 % of control
same,T/C,"endpoint: median survival time, dose: 40.0 mg/kg/injection, schedule: Q01DX009 (ip), vehicle: saline with Tween-80, higher = longer survival",99 % of control
CC[CH2][Pb]([Cl])([CH2]CC)[CH2]CC,T/C,"endpoint: median survival time, dose: 0.01 mg/kg/injection, schedule: Q01DX009 (ip), vehicle: DMSO, higher = longer survival",101 % of control
same,T/C,"endpoint: median survival time, dose: 0.02 mg/kg/injection, schedule: Q01DX009 (ip), vehicle: DMSO, higher = longer survival",93 % of control
same,T/C,"endpoint: median survival time, dose: 0.04 mg/kg/injection, schedule: Q01DX009 (ip), vehicle: DMSO, higher = longer survival",98 % of control
same,T/C,"endpoint: median survival time, dose: 0.04 mg/kg/injection, schedule: Q01DX009 (ip), vehicle: Klucel (hydroxypropylcellulose) (HPC), higher = longer survival",94 % of control
same,T/C,"endpoint: median survival time, dose: 0.08 mg/kg/injection, schedule: Q01DX009 (ip), vehicle: DMSO, higher = longer survival",107 % of control
same,T/C,"endpoint: median survival time, dose: 0.09 mg/kg/injection, schedule: Q01DX009 (ip), vehicle: Klucel (hydroxypropylcellulose) (HPC), higher = longer survival",106 % of control
same,T/C,"endpoint: median survival time, dose: 0.18 mg/kg/injection, schedule: Q01DX009 (ip), vehicle: Klucel (hydroxypropylcellulose) (HPC), higher = longer survival",100 % of control
same,T/C,"endpoint: median survival time, dose: 0.37 mg/kg/injection, schedule: Q01DX009 (ip), vehicle: DMSO, higher = longer survival",108 % of control
same,T/C,"endpoint: median survival time, dose: 0.37 mg/kg/injection, schedule: Q01DX009 (ip), vehicle: Klucel (hydroxypropylcellulose) (HPC), higher = longer survival",104 % of control
Nc1ncnc2c(C3OC(CO)C(O)C3O)[nH]nc12 (stereo not drawn),T/C,"endpoint: mean tumor weight, dose: 10.5 mg/kg/injection, schedule: Q01DX011 (ip), vehicle: carboxymethylcellulose (CMC), higher = larger tumour",66 % of control
CCOP(=O)(N1CC1(C)C)N1CC1(C)C (stereo not drawn),T/C,"endpoint: median survival time, dose: 5.0 mg/kg/injection, schedule: Q01DX009 (ip), vehicle: saline, higher = longer survival",94 % of control
same,T/C,"endpoint: median survival time, dose: 10.0 mg/kg/injection, schedule: Q01DX009 (ip), vehicle: saline, higher = longer survival",101 % of control
same,T/C,"endpoint: median survival time, dose: 20.0 mg/kg/injection, schedule: Q01DX009 (ip), vehicle: saline, higher = longer survival",94 % of control
same,T/C,"endpoint: median survival time, dose: 30.0 mg/kg/injection, schedule: Q01DX009 (ip), vehicle: saline, higher = longer survival",101 % of control
same,T/C,"endpoint: median survival time, dose: 50.0 mg/kg/injection, schedule: Q01DX009 (ip), vehicle: saline, higher = longer survival",90 % of control
same,T/C,"endpoint: median survival time, dose: 80.0 mg/kg/injection, schedule: Q01DX009 (ip), vehicle: saline, higher = longer survival",99 % of control
N/N=C(\N)c1nn(C2OC(CO)C(O)C2O)c2ncnc(N)c12 (stereo not drawn),T/C,"endpoint: median survival time, dose: 40.0 mg/kg/injection, schedule: Q01DX005 (ip), vehicle: saline, higher = longer survival",124 % of control
same,T/C,"endpoint: median survival time, dose: 80.0 mg/kg/injection, schedule: Q01DX005 (ip), vehicle: saline, higher = longer survival",104 % of control

# — PubChem BioAssay AID270 (DTP/NCI, 2004)
